Experiment [1] addresses T1, human V2 receptor (Homo sapiens, UniProt P30518).
T1 construct: expressed in transfected cells; host or cells: 293FT cells
Put plainly: V2 receptor binding assay ([3H](Arg8)-vasopressin, crude membranes of 293FT cells). The settings on record: receptor binding test, human V2, 293FT cell membranes. The method, then: (§1) A summary of the methods is given below.
(§2) Each obtained homogenate was centrifuged for 20 minutes at 50,000×g and 4° C., the sediment was resuspended in a 50 mmol/L Tris hydrochloric acid buffer solution (pH7.4, containing 10 mmol/L magnesium chloride and 0.1% bovine serum albumin), which served as a crude membrane preparation. This crude membrane preparation was added with [^3H] (Arg^8) vasopressin (final concentration: 0.1 nmol/L to 0.4 nmol/L), and each test drug (final concentration: 0.1 nmol/L to lμmol/L or 0.01 nmol/L to 0.1 μmol/L) to 22° C. for 90 minutes. After the end of the reaction, the reaction solution was filtrated using a GF/C glass fiber filter, which had been presoaked in 0.3% polyethyleneimine for two hours. After the GF/C glass fiber filter was dried sufficiently, scintillator was added, and the radioactivity on the filter was measured using a liquid scintillation counter. Binding of [^3H] (Arg^8)-vasopressin in the presence of (Arg^8)-vasopressin, in the amounts of 0.1 μmol/L in the V1b receptor binding assay and 5 μmol/L in the V1a and V2 receptor binding assay, were taken as non-specific binding, and the value obtained by subtracting non-specific binding from the total binding in the absence (Arg^8)-vasopressin served as specific binding.

Experiment [2] concerns the target T2, human V1b receptor (Homo sapiens, UniProt P47901).
T2 construct: expressed in transfected cells; host or cells: CHO cells
T2 sequence (P47901 1-424): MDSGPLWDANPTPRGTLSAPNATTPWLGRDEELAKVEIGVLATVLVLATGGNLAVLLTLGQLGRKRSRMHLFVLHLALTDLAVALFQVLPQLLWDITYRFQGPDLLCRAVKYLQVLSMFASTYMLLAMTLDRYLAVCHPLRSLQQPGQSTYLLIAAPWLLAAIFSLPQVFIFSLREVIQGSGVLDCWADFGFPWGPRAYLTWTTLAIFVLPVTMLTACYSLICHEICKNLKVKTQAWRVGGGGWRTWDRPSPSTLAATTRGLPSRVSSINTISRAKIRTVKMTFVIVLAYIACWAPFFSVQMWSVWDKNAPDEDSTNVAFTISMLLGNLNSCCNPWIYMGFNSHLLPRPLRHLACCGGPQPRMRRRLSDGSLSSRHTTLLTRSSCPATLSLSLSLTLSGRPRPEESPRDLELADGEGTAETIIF
Kind of experiment: V1b receptor binding assay ([3H](Arg8)-vasopressin, crude membranes of CHO cells). Conditions: for IC50: receptor binding test, human V1b, CHO cell membranes; for inhibition at 0.1 µM: 0.1 μmol/L test drug, V1b receptor binding assay, read-out: Rate of inhibition (V1b: % of inhibition). The method, then:
as §1, §2
In addition, regarding the V1b receptor binding assay, the value obtained by, subtracting the amount of binding in the presence of 0.1 μmol/L test drug from the total amount of binding, divided by the amount of specific binding, served as the rate of inhibition (% of inhibition) of the test drug at the concentration tested.

In experiment [3] the target is T3, human V1a receptor (Homo sapiens, UniProt P37288).
T3 construct: expressed in transfected cells; host or cells: 293FT cells
T3 sequence (P37288 whole entry): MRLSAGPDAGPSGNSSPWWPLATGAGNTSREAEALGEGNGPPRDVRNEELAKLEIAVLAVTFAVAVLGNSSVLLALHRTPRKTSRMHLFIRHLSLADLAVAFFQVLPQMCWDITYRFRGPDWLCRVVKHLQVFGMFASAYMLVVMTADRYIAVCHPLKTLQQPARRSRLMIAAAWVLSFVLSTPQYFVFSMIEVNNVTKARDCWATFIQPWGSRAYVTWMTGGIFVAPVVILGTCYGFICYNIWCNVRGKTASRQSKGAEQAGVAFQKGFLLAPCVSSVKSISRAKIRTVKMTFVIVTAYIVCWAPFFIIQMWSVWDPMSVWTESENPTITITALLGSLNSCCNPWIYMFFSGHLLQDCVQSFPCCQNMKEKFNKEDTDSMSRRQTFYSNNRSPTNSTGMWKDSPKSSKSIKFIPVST
Put plainly: V1a receptor binding assay ([3H](Arg8)-vasopressin, crude membranes of 293FT cells). The settings on record: receptor binding test, 293FT cell membranes. The method, then: as §1, §2

The IC50 is the concentration that gives 50% inhibition. Read a low IC50 as inhibition by little substance. One may read the inhibition as the drop in the measured response relative to a control, in per cent.

T1 sequence (P30518 whole entry): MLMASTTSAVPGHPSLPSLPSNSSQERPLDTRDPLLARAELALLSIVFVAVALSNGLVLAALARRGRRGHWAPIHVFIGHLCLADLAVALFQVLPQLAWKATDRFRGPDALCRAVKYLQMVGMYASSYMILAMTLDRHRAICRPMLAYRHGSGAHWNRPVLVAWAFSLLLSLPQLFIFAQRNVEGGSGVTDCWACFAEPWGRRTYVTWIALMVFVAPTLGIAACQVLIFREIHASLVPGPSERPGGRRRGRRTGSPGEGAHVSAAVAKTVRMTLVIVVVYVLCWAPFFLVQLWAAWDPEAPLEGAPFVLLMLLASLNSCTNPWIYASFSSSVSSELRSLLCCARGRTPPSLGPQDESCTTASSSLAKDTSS

As for `COc1ccc(S(=O)(=O)N2C(=O)C(c3ccccc3OC)(N3C[C@H](O)C[C@H]3C(=O)N(C)C)c3cc(Cl)ccc32)c(OC(F)(F)F)c1` (single isomer, unassigned) [Example 2], the results for the IC50 in experiment [1], in experiment [2] and in experiment [3] were 4010 nM, 2.6 nM and 743 nM, respectively.
On the same counts, the results for `COc1ccc(S(=O)(=O)N2C(=O)C(N[C@@H](C)C(=O)N(C)C)(c3ccccc3OC)c3cc(Cl)ccc32)c(OC(F)(F)F)c1` (single isomer, unassigned) [Example 61] are above 10000 nM, 15 nM and 1470 nM.
For the compound `COc1ccc(S(=O)(=O)N2C(=O)C(c3cc(CN(C)C)ccc3OC)(N3C[C@H](O)C[C@H]3C(=O)N(C)C)c3cc(Cl)ccc32)c(OC(F)(F)F)c1` (single isomer, unassigned) [Example 195 A], the IC50 is above 10000 nM in experiment [1], 0.56 nM in experiment [2] and 573 nM in experiment [3].
`COc1ccc(S(=O)(=O)N2C(=O)C(c3cc(C(C)C)ccc3OC)(N3C[C@H](O)C[C@H]3C(=O)N(C)C)c3cc(Cl)ccc32)c(OC(F)(F)F)c1` (single isomer, unassigned) [Example 230]: in experiment [2], the inhibition at 0.1 µM came to 101%.
Take `COc1ccc(S(=O)(=O)N2C(=O)C(c3cccc(OC)c3OC)(N3C[C@H](O)C[C@H]3C(=O)N(C)C)c3cc(Cl)ccc32)c(OC(F)(F)F)c1` (single isomer, unassigned) [Example 240]: the inhibition at 0.1 µM in experiment [2] stood at 85%.
For `COc1ccc(S(=O)(=O)N2C(=O)C(N[C@@H](Cc3ccc(O)cc3)C(=O)N(C)C)(c3ccccc3OC)c3cc(Cl)ccc32)c(OC(F)(F)F)c1` (single isomer, unassigned) [Example 86], the inhibition at 0.1 µM in experiment [2] stood at 86%.
As to `COc1ccc(S(=O)(=O)N2C(=O)C(c3cc(N(C)C)ccc3OC)(N3C[C@H](O)C[C@H]3C(=O)N(C)C)c3cc(Cl)ccc32)c(OC(F)(F)F)c1` (single isomer, unassigned) [Example 190], in experiment [2], the inhibition at 0.1 µM was 93%.
`COC(=O)[C@H](C)OC1(c2ccccc2OC)C(=O)N(S(=O)(=O)c2ccc(OC)cc2OC(F)(F)F)c2ccc(Cl)cc21` (stereo partly drawn) [Example 80, Methyl (2S)-2-[(5-chloro-3-(2-methoxyphenyl)-1-{[4-methoxy-2-(trifluoromethoxy)phenyl]sulfonyl}-2-oxo-2,3-dihydro-1H-indol-3-yl)oxy]propanoate]: the inhibition at 0.1 µM in experiment [2] came out at 69%.
For the compound `COc1ccc(C)cc1C1(N2C[C@H](O)C[C@H]2C(=O)N(C)C)C(=O)N(S(=O)(=O)c2ccc(OC)c(OC)c2OC)c2ccc(Cl)cc21` (single isomer, unassigned) [Example 176], the inhibition at 0.1 µM in experiment [2] stood at 97%.
Take `COc1ccc(S(=O)(=O)N2C(=O)C(c3cc(C)ccc3OC)(N3C[C@H](O)C[C@H]3C(=O)N(C)C)c3cc(Br)cnc32)c(OC)c1` (single isomer, unassigned) [Example 121]: the inhibition at 0.1 µM in experiment [2] worked out at 47%.
As to `COc1ccc(S(=O)(=O)N2C(=O)C(c3cc(C)ccc3OC)(N3C[C@H](OCCCN4CCN(C)CC4)C[C@H]3C(=O)N(C)C)c3cc(Cl)ccc32)c(OC(F)(F)F)c1` (stereo partly drawn) [Example 154, (4R)-1-(5-chloro-3-(2-methoxy-5-methylphenyl)-1-{[4-methoxy-2-(trifluoromethoxy)phenyl]sulfonyl}-2-oxo-2,3-dihydro-1H-indol-3-yl)-N,N-dimethyl-4-[3-(4-methylpiperazin-1-yl)propoxy]-L-prolinamide], the inhibition at 0.1 µM in experiment [2] turned out to be 100%.
`C=Cc1ccccc1C1(N2C[C@H](O)C[C@H]2C(=O)N(C)C)C(=O)N(S(=O)(=O)c2ccc(OC)cc2OC(F)(F)F)c2ccc(Cl)cc21` (single isomer, unassigned) [Example 104]: in experiment [2], the inhibition at 0.1 µM came out at 94%.
Take `COc1ccc(S(=O)(=O)N2C(=O)C(c3cc(C)ccc3OC)(N3C[C@H](O)C[C@H]3C(=O)N(CCO)CCO)c3cc(Cl)ccc32)c(OC(F)(F)F)c1` (stereo partly drawn) [Example 161, (4R)-1-(5-chloro-3-(2-methoxy-5-methylphenyl)-1-{[4-methoxy-2-(trifluoromethoxy)phenyl]sulfonyl}-2-oxo-2,3-dihydro-1H-indol-3-yl)-4-hydroxy-N,N-bis(2-hydroxyethyl)-L-prolinamide]: the inhibition at 0.1 µM in experiment [2] was 78%.
With `COc1ccc(S(=O)(=O)N2C(=O)C(c3cc(C)ccc3OC)(N3C[C@H](OCCCO)C[C@H]3C(=O)N(C)C)c3cc(Cl)ccc32)c(OC(F)(F)F)c1` (stereo partly drawn) [Example 139, (4R)-1-(5-chloro-3-(2-methoxy-5-methylphenyl)-1-{[4-methoxy-2-(trifluoromethoxy)phenyl]sulfonyl}-2-oxo-2,3-dihydro-1H-indol-3-yl)-4-(3-hydroxypropoxy)-N,N-dimethyl-L-prolinamide], the inhibition at 0.1 µM in experiment [2] came to 103%.
As to `COc1ccc(S(=O)(=O)N2C(=O)C(c3cc(C)ccc3OC)(N3C[C@H](OC(C)=O)C[C@H]3C(=O)N(C)C)c3cc(Cl)ccc32)c(OC(F)(F)F)c1` (single isomer, unassigned) [Example 137], the inhibition at 0.1 µM in experiment [2] is 96%.
Consider `COc1ccc(S(=O)(=O)N2C(=O)C(c3cc(CN4CCN(C(=O)OC(C)(C)C)CC4)ccc3OC)(N3C[C@H](O)C[C@H]3C(=O)N(C)C)c3cc(Cl)ccc32)c(OC(F)(F)F)c1` (single isomer, unassigned) [Example 201], for which, in experiment [2], the inhibition at 0.1 µM turned out to be 53%.
Take `COc1ccc(S(=O)(=O)N2C(=O)C(c3cc(C)ccc3OC)(N3C[C@H](O)C[C@H]3C(=O)N(C)C)c3cc(Cl)ccc32)c(OCC(F)(F)F)c1` (single isomer, unassigned) [Example 171]: the inhibition at 0.1 µM in experiment [2] worked out at 95%.
As for `COc1ccc(S(=O)(=O)N2C(=O)C(c3ccccc3C)(N3C[C@H](O)C[C@H]3C(=O)N(C)C)c3cc(Br)ccc32)c(OC(F)(F)F)c1` (single isomer, unassigned) [Example 105], the inhibition at 0.1 µM in experiment [2] is 95%.
In the case of `COc1ccc(C2(N3CCCC[C@H]3C(=O)N(C)C)C(=O)N(S(=O)(=O)c3ccc(OC)cc3OC(F)(F)F)c3ccc(C)cc32)cc1` (single isomer, unassigned) [Example 96], in experiment [2], the inhibition at 0.1 µM is 73%.
As to `CCN(C)CCCO[C@@H]1C[C@@H](C(=O)N(C)C)N(C2(c3cc(C)ccc3OC)C(=O)N(S(=O)(=O)c3ccc(OC)cc3OC(F)(F)F)c3ccc(Cl)cc32)C1` (stereo partly drawn) [Example 152, (4R)-1-(5-chloro-3-(2-methoxy-5-methylphenyl)-1-{[4-methoxy-2-(trifluoromethoxy)phenyl]sulfonyl}-2-oxo-2,3-dihydro-1H-indol-3-yl)-4-{3-[ethyl(methyl)amino]propoxy}-N,N-dimethyl-L-prolinamide], in experiment [2], the inhibition at 0.1 µM came to 107%.
Regarding `COc1ccc(S(=O)(=O)N2C(=O)C(c3cc(CCN(C)C)ccc3OC)(N3C[C@H](O)C[C@H]3C(=O)N(C)C)c3cc(Cl)ccc32)c(OC(F)(F)F)c1` (stereo partly drawn) [Example 221, (4R)-1-(5-chloro-3-{5-[2-(dimethylamino)ethyl]-2-methoxyphenyl}-1-{[4-methoxy-2-(trifluoromethoxy)phenyl]sulfonyl}-2-oxo-2,3-dihydro-1H-indol-3-yl)-4-hydroxy-N,N-dimethyl-L-prolinamide], the inhibition at 0.1 µM in experiment [2] was 102%.
In the case of `COc1ccc(S(=O)(=O)N2C(=O)C(c3cc(C)cnc3OC)(N3C[C@H](O)C[C@H]3C(=O)N(C)C)c3cc(Cl)ccc32)c(OC)c1OC` (stereo partly drawn) [Example 173, (4R)-1-{5-chloro-3-(2-methoxy-5-methylpyridin-3-yl)-2-oxo-1-[(2,3,4-trimethoxyphenyl)sulfonyl]-2,3-dihydro-1H-indol-3-yl}-4-hydroxy-N,N-dimethyl-L-prolinamide], the inhibition at 0.1 µM in experiment [2] stood at 104%.

These data come from patent publication US8030499B2, “1,3-dihydro-2H-indole-2-one compound and pyrrolidine-2-one compound fused with aromatic heterocycle” (Taisho Pharmaceutical Co., Ltd., priority 2005, dated 2011).
